Tests used:
in vitro [1] = details: guinea pig, liver microsomes
in vitro [2] = details: human, liver microsomes
in vitro [3] = details: rat, liver microsomes

Molecule `O=C(Nc1cc(F)cc(C(F)(F)F)c1)c1cc2nc(Nc3c(F)cccc3Cl)[nH]c2c2c1OCCO2` has a remaining at 1 h, 1 µM (in vitro [1]) of 95.8%, a remaining at 1 h, 1 µM (in vitro [2]) of 98.2% and a remaining at 1 h, 1 µM (in vitro [3]) of 93.8%.

Reference: ChEMBL document CHEMBL3872236, “Discovery of 2-((2-chloro-6-fluorophenyl)amino)-N-(3-fluoro-5-(trifluoromethyl)phenyl)-1-methyl-7,8-dihydro-1H-[1,4]dioxino[2',3':3,4]benzo[1,2-d]imidazole-5-carboxamide as potent, selective and efficacious microsomal prostaglandin E2 synthase-1 (mPGES-1) inhibitor” (Bioorg Med Chem Lett, 2016)
